Results taken from patent publication US6303626A, “Pharmaceutical formulations in dry form for the oral administration of a cyclic quaternary ammonium compound” (Sanofi-Synthelabo, priority 1997, dated 2001).
Read-outs that look alike come from different tables or passages of the source.

Key:
[1] = tested on: Caco-2 cells; format: in vitro ADME; settings: polysorbate 80 added to a solution of compound A in the cell culture medium
Excerpt: This line is conventionally used for evaluating the ability of compounds to permeate the epithelium (Crit. Rev. Ther. Drug Carrier System. 1991, 8 (4), 105-330).
2. Evaluation of the Intestinal Transepithelial Passage of Compound A
Caco-2 cells are inoculated onto microporous polycarbonate filters covered with collagen. The cellular monolayer formed on the filter then makes it possible to separate an apical compartment (imitating the intestinal lumen) from a basal compartment (imitating the blood circulation).
The composition containing the compound to be studied is then placed on the apical side and the passage of this compound, dispersed or solubilized in Hank's medium, through this cellular barrier is evaluated by measuring the kinetics of its appearance on the basal side. This aqueous medium, of pH 6.5, has the following composition: NaCl=8.0 g/l; KCl=0.4 g/l; CaCl2 =0.19 g/l; MgCl2 =0.1 g/l; MgSO4 =0.1 g/l; Na2 HPO4 =0.09 g/l; KH2 PO4 =0.06 g/l; NaHCO3 =0.35 g/l; glucose=1 g/l; phenol red=0.01 g/l. […]
Various non-ionic surfactants or agents said to improve absorption, such as a C8 -C10 fatty acid or one of its derivatives, were added to the formulation described above, placed in Hank's medium, and the relative rate of intestinal transepithelial passage of compound A in these formulations was measured.

[2] = Solubility in different media / solvents; format: physicochemical; settings: dmso, organic solvent or mixture; read-out: Solubility in dimethyl sulfoxide (DMSO)
[3] = Solubility of compound A in water at the saturation point, 24 h, room temperature, UV spectrometry; format: physicochemical; settings: for solubility at 24 h: water, room temperature, read-out: Concentration of compound A (solubility in water at saturation)
Excerpt: 1. Solubility of Compound A

[4] = in vivo; settings: rat, 0.6% aqueous solution of compound A in methyl cellulose, read-out: Estimated absorption
Excerpt: In this model, the permeability to compound A dissolved in dimethyl sulfoxide (DMSO) is 3.4.10^-7 cm/s. Furthermore, studies performed on the rat with a 0.6% aqueous solution of compound A in methyl cellulose have shown that its estimated absorption is less than 1%.

## CC(C)Oc1cccc(CC(=O)N2CCC[C@](CC[N+]34CCC(c5ccccc5)(CC3)CC4)(c3ccc(Cl)c(Cl)c3)C2)c1 [compound A, (S)-1-{2-[3-(3,4-dichlorophenyl)-1-(3-iso-propoxyphenylacetyl)piperidin-3-yl]ethyl}-4-phenyl-1-azoniabicyclo[2.2.2]octane]
[1]
  Effect of addition of polysorbate 80 on transepithelial passage: substantially improves the transepithelial passage
[2]
  solubility: 168000 µg/mL
[3]; pH 1 to 9
  Solubility in water, dependence on pH: low and not dependent on the pH
[3]; pH 1
  solubility at 24 h: 310 µg/mL
[3]; pH 3
  solubility at 24 h: 310 µg/mL
[3]; pH 5
  solubility at 24 h: 310 µg/mL
[3]; pH 7
  solubility at 24 h: 290 µg/mL
[3]; pH 9
  solubility at 24 h: 310 µg/mL
[4]
  Fa: < 1%
